Reference: the supplement of paper PMC10307832

Columns and labels:
Assay in all cases: relative viability (nuclei count vs DMSO), 5 days (fraction); higher = more cells survive
[1] = test system: RERF-LC-KJ
Method in brief: (§1)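 Five library-drug doses in √10 steps were combined with a fixed anchor-drug dose, or a single drug was given alone, by pin tool to lung cancer cell lines in 1536-well plates the day after seeding. Nuclei were stained and counted after 5 days. Relative viability is the nuclei count in treated wells over that in vehicle wells, taken as the median of duplicate plates.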

[2] = test system: NCI-H1734
Method in brief: as §1

[3] = test system: NCI-H661
Method in brief: as §1

[4] = test system: NCI-H1975
Method in brief: as §1

[5] = test system: NCI-H1650
Method in brief: as §1

[6] = test system: LCLC-97TM1
Method in brief: as §1

[7] = test system: NCI-H2228
Method in brief: as §1

[8] = test system: HCC-827
Method in brief: as §1

[9] = test system: PC-3 [JPC-3]
Method in brief: as §1

[10] = test system: HCC-15
Method in brief: as §1

[11] = test system: NCI-H1755
Method in brief: as §1

[12] = test system: CAL-12T
Method in brief: as §1

[13] = test system: H3255
Method in brief: as §1

[14] = test system: NCI-H322M
Method in brief: as §1

[15] = test system: EKVX
Method in brief: as §1

[16] = test system: PC-14
Method in brief: as §1

[17] = test system: NCI-H1355
Method in brief: as §1

[18] = test system: NCI-H520
Method in brief: as §1

[19] = test system: NCI-H2342
Method in brief: as §1

[20] = test system: NCI-H2405
Method in brief: as §1

[21] = test system: LK-2
Method in brief: as §1

COc1nc(C)cnc1NS(=O)(=O)c1cccnc1-c1ccc(-c2nnco2)cc1 [Zibotentan] + O=C(CCCCCCC(=O)Nc1ccccc1)NO [Vorinostat] (partner 1 µM)
relative viability ([1]; first compound 0.08 µM): 0.847
relative viability ([1]; first compound 0.253 µM): 0.541
relative viability ([1]; first compound 0.8 µM): 0.74
relative viability ([1]; first compound 2.53 µM): 0.679
relative viability ([2]; first compound 0.08 µM): 0.842
relative viability ([2]; first compound 0.253 µM): 0.705
relative viability ([2]; first compound 0.8 µM): 0.864
relative viability ([2]; first compound 2.53 µM): 0.912
relative viability ([3]; first compound 0.08 µM): 0.823
relative viability ([3]; first compound 0.253 µM): 0.766
relative viability ([3]; first compound 0.8 µM): 0.827
relative viability ([3]; first compound 2.53 µM): 0.844
relative viability ([4]; first compound 0.08 µM): 0.758
relative viability ([4]; first compound 0.253 µM): 0.646
relative viability ([4]; first compound 0.8 µM): 0.632
relative viability ([4]; first compound 2.53 µM): 0.7
relative viability ([5]; first compound 0.08 µM): 0.528
relative viability ([5]; first compound 0.8 µM): 0.61
relative viability ([5]; first compound 2.53 µM): 0.646
relative viability ([6]; first compound 0.08 µM): 0.822
relative viability ([6]; first compound 0.253 µM): 0.831
relative viability ([6]; first compound 0.8 µM): 0.697
relative viability ([6]; first compound 2.53 µM): 0.755
relative viability ([7]; first compound 0.08 µM): 0.805
relative viability ([7]; first compound 0.253 µM): 0.719
relative viability ([7]; first compound 0.8 µM): 0.613
relative viability ([7]; first compound 2.53 µM): 0.92
relative viability ([8]; first compound 0.08 µM): 0.958
relative viability ([8]; first compound 0.253 µM): 0.771
relative viability ([8]; first compound 0.8 µM): 0.811
relative viability ([8]; first compound 2.53 µM): 0.785
relative viability ([9]; first compound 0.08 µM): 1.19
relative viability ([9]; first compound 0.253 µM): 0.561
relative viability ([9]; first compound 0.8 µM): 0.72
relative viability ([9]; first compound 2.53 µM): 0.867
relative viability ([10]; first compound 0.08 µM): 0.859
relative viability ([10]; first compound 0.253 µM): 0.863
relative viability ([10]; first compound 0.8 µM): 0.879
relative viability ([10]; first compound 2.53 µM): 0.84
relative viability ([11]; first compound 0.08 µM): 0.851
relative viability ([11]; first compound 0.253 µM): 0.742
relative viability ([11]; first compound 0.8 µM): 0.803
relative viability ([11]; first compound 2.53 µM): 0.818
relative viability ([12]; first compound 0.08 µM): 0.887
relative viability ([12]; first compound 0.253 µM): 0.543
relative viability ([12]; first compound 0.8 µM): 0.742
relative viability ([12]; first compound 2.53 µM): 0.714
relative viability ([13]; first compound 0.08 µM): 0.926
relative viability ([13]; first compound 0.253 µM): 0.785
relative viability ([13]; first compound 0.8 µM): 0.877
relative viability ([13]; first compound 2.53 µM): 0.778
relative viability ([14]; first compound 0.08 µM): 1.03
relative viability ([14]; first compound 0.253 µM): 0.748
relative viability ([14]; first compound 0.8 µM): 0.895
relative viability ([14]; first compound 2.53 µM): 0.93
relative viability ([15]; first compound 0.08 µM): 0.675
relative viability ([15]; first compound 0.253 µM): 0.818
relative viability ([15]; first compound 0.8 µM): 0.727
relative viability ([15]; first compound 2.53 µM): 0.777
relative viability ([16]; first compound 0.08 µM): 0.937
relative viability ([16]; first compound 0.253 µM): 0.421
relative viability ([16]; first compound 0.8 µM): 0.81
relative viability ([16]; first compound 2.53 µM): 0.77
relative viability ([17]; first compound 0.08 µM): 0.682
relative viability ([17]; first compound 0.253 µM): 0.584
relative viability ([17]; first compound 0.8 µM): 0.657
relative viability ([17]; first compound 2.53 µM): 0.69
relative viability ([18]; first compound 0.08 µM): 0.778
relative viability ([18]; first compound 0.253 µM): 0.799
relative viability ([18]; first compound 0.8 µM): 0.794
relative viability ([18]; first compound 2.53 µM): 0.711
relative viability ([19]; first compound 0.08 µM): 0.832
relative viability ([19]; first compound 0.253 µM): 0.778
relative viability ([19]; first compound 0.8 µM): 0.778
relative viability ([19]; first compound 2.53 µM): 0.678
relative viability ([20]; first compound 0.08 µM): 1.25
relative viability ([20]; first compound 0.253 µM): 0.829
relative viability ([20]; first compound 0.8 µM): 0.957
relative viability ([20]; first compound 2.53 µM): 1.12
relative viability ([21]; first compound 0.08 µM): 0.304
relative viability ([21]; first compound 0.253 µM): 0.305
relative viability ([21]; first compound 0.8 µM): 0.338
relative viability ([21]; first compound 2.53 µM): 0.209
